Consider two compounds from patent US20240103005A1, “N-ACRYLOYLINDOLES AND METHODS OF USE” (The University of Hong Kong, priority 2022, published 2024).

Data set [1] concerns 231MFP cells. Kind of data set: WST-8 cell viability assay. It is filed as cell-based. The procedure: WST-8 Cell Viability Assay of Cells Treated with NAIA-4 or IAA
231MFP cells were plated on 96-well plates (Corning, 3904) at 30,000 cells per well and allowed to grow in complete medium overnight. The cells were then incubated with DMSO solvent control, NAIA-4 or IAA at indicated concentrations for 2 h. The solution was replaced with new culture medium containing 10 μL of WST-8 solution (Abcam; ab228554) and incubated for 2 h in dark at 37° C. Cell viability were then assayed by the absorption at 460 nm on SpectraMax i3 (Molecular Devices).

For data set [2], the system named is HepG2 cell lysates. The experiment in a line: Gel-based ABPP, in vitro Cys labeling of HepG2 cell lysates (in-gel fluorescence). It is filed as biochemical. The procedure:
In-Gel Fluorescence for Visualizing Cys Labeling by NAIAs and IAA In Vitro
HepG2 or 231MFP cells were lysed by probe sonication in DPBS, and cell debris were removed by centrifugation at 1,000 g for 5 min. Protein concentration of the lysates was determined by bicinchoninic acid (BCA) assay, and the lysates were then diluted to 2 mg/mL by DPBS. 50 μL of the lysates were incubated with indicated concentrations of NAIA-4, NAIA-5 or IAA for indicated time interval at room temperature. […] Samples were then separated by molecular weight on precast 4-20% TGX gels (Thermo Scientific) and scanned by ChemiDoc MP (Bio-Rad Laboratories, Inc) for measuring in-gel fluorescence. […]
With the in vitro characterization data in hand, we next moved to investigate the ability of NAIA in labeling functional cysteines in cell lysates and live cells. […] After the reaction, the protein mixture was resolved by sodium dodecyl sulphate-polyacrylamide gel electrophoresis (SDS-PAGE) and in-gel fluorescence was measured. […] The fluorescence intensity from these labeled protein bands can then reflect the degree of cysteine labeling by the probes. […]

Data set [3] relates to HepG2 cells. Kind of data set: MS-based ABPP, live-cell cysteine labeling of HepG2 cells. Details: species or system human. The note with it: 10 μM, 1 h. How it is done:
MS-Based ABPP Experiments to Identify Liganded Cysteines in HepG2 Cells by Live-Cell Labeling Using NAIA-5 or IAA.
HepG2 cells were plated on 15 cm tissue culture plates and allowed to grow in complete medium at 37° C. with 5% CO2 to ca. 80% confluency. The cells were then treated with NAIA-5 and IAA (10 μM), respectively, in complete medium and incubated at 37° C. with 5% CO2 for 1 h. The cells were washed, scrapped in PBS and lysed by sonication. After BCA assay, the cell lysates were diluted to 2 mg/mL, and 2 mL of the lysates were used for n=1 sample preparation. The lysates were then subjected to CuAAC reaction with DTB-PEG-azide, acetone precipitation, enrichment by streptavidin beads, reduction by TCEP followed by cysteine carbamidomethylation and tryptic digestion according to the same procedure described for the sample preparation of HepG2 cell lysate experiment except no pairing of the NAIA-5- and IAA-labeled samples. The probe-modified peptides were then eluted by elution buffer solution (MeCN/H2O, 1:1, v/v; with 0.1% formic acid), dried, desalted by C18 Stage tips and sent for LC-MS/MS analysis using Aurora C18 UHPLC column (75 μm i.d.×25 cm length×1.6 μm particle size; IonOpticks, Australia) coupled to timsTOF Pro mass spectrometer (Bruker), with the same experimental settings as described for the experiment on HepG2 cell lysates. […]

As to `C#CCCCCNC(=O)CI` [IAA, N-Hex-5-ynyl-2-iodoacetamide, reference compound], the “cytotoxicity (in words)” value in data set [1] was “high cellular cytotoxicity”.
Turning to `C#CCCCCNC(=O)COc1ccc2c(ccn2C(=O)C=C)c1` [NAIA-5], the “cysteine labeling (in-gel fluorescence) compared with IAA, time-dependent” value in data set [2] (1 and 10 μM, 15 and 30 min) was “more cysteine labeling by NAIA-5 than IAA was found at 1 and 10 μM for both 15 and 30 min incubation”. Also, in data set [2] (1 h incubation, three doses), the “cysteine labeling (in-gel fluorescence) compared with IAA” value was “more cysteine labeling than IAA at all the three doses tested”. In data set [3], the “number of labeled cysteines in live cells compared with IAA” value is “higher number of labeled cysteines than IAA”.
